This is an account of results in patent US6824928B2, “Organic borate compounds and the nonaqueous electrolytes and lithium secondary batteries using the compounds” (Hitachi, Ltd., priority 2000, dated 2004).

Read-outs that look alike come from different tables or passages of the source.

The nature of data set [1]: Electroconductivity in fluorinated solvent B (HFE7100/DMC 80:20). Particulars: for electroconductivity (result in words) / concentration at which maximum electroconductivity was obtained / maximum electroconductivity: solvent B: HFE7100/DMC 80:20; for improvement of electroconductivity: solvent B, versus LiN (SO2CF3)2. It is filed as physicochemical.
The conditions of data set [2]: solvent B: HFE7100/DMC 80:20; salt dissolved to 0.1 M.
For data set [3] the following is noted: 1 M in PC; versus comparative example 8.
The conditions of data set [4]: 1 M in PC; platinum working electrode, lithium counter/reference; sweep 10 mV/sec. The source says: By use of these nonaqueous electrolytes, the respective oxidation decomposition potential values have been compared using the method described below.
For data set [5] the following is noted: for improvement of electroconductivity by factor: solvent A, versus lithium bis-salicylate borate (comparative example 1).

In the case of `F[B-](F)(F)F.[Li+]` [LiBF4, lithium tetrafluoroborate, reference compound], the “electroconductivity (result in words)” value in data set [1] is listed as “no electroconductivity has been measurable”. Besides, the “phase behaviour of the solution” value in data set [2] is listed as “the phase of the solvent has separated into two layers”.

As for “lithium bis-benzenediolate [reference compound]”, the “electroconductivity (result in words)” value in data set [1] is given as “no electroconductivity has been measurable”.

Regarding “Tetraethyl Ammonium Tetrakis (Trifluoroacetate) Borate [AB1]”, the “increase of potential window at the oxidation side” value in data set [3] turned out to be 0.5 V.

For the molecule “Lithium Tetrakis (Pentafluoropropanoate) Borate [LB2]”, in data set [1], the “concentration at which maximum electroconductivity was obtained” value (from here on “concentration”) is on record as 0.6 M, the maximum electroconductivity is 1.7 mS/cm and the improvement of electroconductivity is reported as 2.4 times. Besides, the “potential from which significant changes in oxidation current are observed (oxidation decomposition potential)” value (“potential from which significant changes” for short) in data set [4] turned out to be 6.5 V. Also, in data set [5] (solvent A: PC/DMC 1:2), the “concentration” value amounted to 0.6 M and the maximum electroconductivity came to 5.8 mS/cm. For the same molecule, the “improvement of electroconductivity by factor” value (from here on “improvement … by factor”) in data set [5] is “up to 13.4”.

Turning to “Lithium Tetrakis (Trichloroacetate) Borate [LB3]”, in data set [4], the “potential from which significant changes” value was found to be 6.4 V. Further, in data set [5] (solvent A: PC/DMC 1:2), the “concentration” value came out at 0.5 M and the maximum electroconductivity came to 4.3 mS/cm. Moreover, in data set [5], the “improvement … by factor” value was “up to 10”.

Regarding `O=C(O[B-](OC(=O)C(F)(F)F)(OC(=O)C(F)(F)F)OC(=O)C(F)(F)F)C(F)(F)F.[Li+]` [LB1, Lithium Tetrakis (Trifluoroacetate) Borate], in data set [1], the “concentration” value is given as 0.8 M, the maximum electroconductivity was determined as 1.55 mS/cm and the improvement of electroconductivity was determined as 2.2 times. Also, the “potential from which significant changes” value in data set [4] came out at 6.7 V. For the same molecule, in data set [5] (solvent A: PC/DMC 1:2), the “concentration” value is given as 0.8 M and the maximum electroconductivity was determined as 7.8 mS/cm. For the same molecule, the “improvement … by factor” value in data set [5] is “up to 18”.

On to `CC(=O)O[B-](OC(C)=O)(OC(C)=O)OC(C)=O.[Li+]` [LB4, Lithium Tetrakis (Acetate) Borate], for which, in data set [5] (solvent A: PC/DMC 1:2, at the dissolved concentration (about 0.1 M)), the “electroconductivity of the nonaqueous electrolyte” value turned out to be 0.02 mS/cm.

Turning to `O=S(=O)([N-]S(=O)(=O)C(F)(F)F)C(F)(F)F.[Li+]` [LiN (SO2CF3)2, lithium bis-(trifluoromethanesulfonyl)imide, reference compound], in data set [1], the “concentration” value turned out to be 1 M and the maximum electroconductivity was determined as 0.69 mS/cm. For the same molecule, in data set [4], the “potential from which significant changes” value stood at 5.8 V.
